Measurements: patent US12649750B2, “Macrocyclic compounds, compositions, and methods of using thereof” (Sionna Therapeutics Inc., priority 2022, dated 2026)

Columns and labels:
NBD1 = molecular target: T1, NBD1 (Homo sapiens, UniProt P13569); assay: Aggregation analysis using differential static light scattering (DSLS), thermal stability of NBD1 (ΔTagg); format: binding; conditions: ΔTagg versus DMSO control, NBD1 0.2 mg/ml
T1 construct: Purified recombinant NBD1 was produced using previously described methods; made in house
T1 sequence (P13569 423-646 limits assumed): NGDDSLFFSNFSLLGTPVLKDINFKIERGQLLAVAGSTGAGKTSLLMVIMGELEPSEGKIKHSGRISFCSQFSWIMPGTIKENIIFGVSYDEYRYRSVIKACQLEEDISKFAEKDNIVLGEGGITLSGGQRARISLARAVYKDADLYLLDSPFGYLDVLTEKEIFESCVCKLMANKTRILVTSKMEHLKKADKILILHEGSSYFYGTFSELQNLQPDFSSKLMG
How it was run: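 Purified recombinant NBD1 at 0.2 mg/ml in Tris buffer pH7.6 with 2 mM ATP, 5 mM MgCl2, 2 mM DTT and 1% glycerol was mixed with DMSO-dissolved compounds under mineral oil. Plates were heated at 1° C. per minute to 70° C., light scattering imaged every 0.5° C.; Tagg from curve inflection, minus DMSO-control mean.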

CFTR = molecular target: T2, CFTR (Homo sapiens, UniProt P13569, DEL508-508); assay: TECC24 AUC fold over DMSO @10 μM, CFTR-mediated transepithelial chloride transport in CF-HBE cells; format: cell-based; conditions: test agent AUC divided by DMSO vehicle AUC, primary CF-HBE cells, ΔF508 homozygous donor, 48 hours incubation
T2 construct: Primary human bronchial epithelial cells from a ΔF508 homozygous CF donor; host or cells: primary human bronchial epithelial cells (CF-HBE), ΔF508 homozygous donor
T2 sequence (P13569 with tags, fused parts or gaps DEL508-508): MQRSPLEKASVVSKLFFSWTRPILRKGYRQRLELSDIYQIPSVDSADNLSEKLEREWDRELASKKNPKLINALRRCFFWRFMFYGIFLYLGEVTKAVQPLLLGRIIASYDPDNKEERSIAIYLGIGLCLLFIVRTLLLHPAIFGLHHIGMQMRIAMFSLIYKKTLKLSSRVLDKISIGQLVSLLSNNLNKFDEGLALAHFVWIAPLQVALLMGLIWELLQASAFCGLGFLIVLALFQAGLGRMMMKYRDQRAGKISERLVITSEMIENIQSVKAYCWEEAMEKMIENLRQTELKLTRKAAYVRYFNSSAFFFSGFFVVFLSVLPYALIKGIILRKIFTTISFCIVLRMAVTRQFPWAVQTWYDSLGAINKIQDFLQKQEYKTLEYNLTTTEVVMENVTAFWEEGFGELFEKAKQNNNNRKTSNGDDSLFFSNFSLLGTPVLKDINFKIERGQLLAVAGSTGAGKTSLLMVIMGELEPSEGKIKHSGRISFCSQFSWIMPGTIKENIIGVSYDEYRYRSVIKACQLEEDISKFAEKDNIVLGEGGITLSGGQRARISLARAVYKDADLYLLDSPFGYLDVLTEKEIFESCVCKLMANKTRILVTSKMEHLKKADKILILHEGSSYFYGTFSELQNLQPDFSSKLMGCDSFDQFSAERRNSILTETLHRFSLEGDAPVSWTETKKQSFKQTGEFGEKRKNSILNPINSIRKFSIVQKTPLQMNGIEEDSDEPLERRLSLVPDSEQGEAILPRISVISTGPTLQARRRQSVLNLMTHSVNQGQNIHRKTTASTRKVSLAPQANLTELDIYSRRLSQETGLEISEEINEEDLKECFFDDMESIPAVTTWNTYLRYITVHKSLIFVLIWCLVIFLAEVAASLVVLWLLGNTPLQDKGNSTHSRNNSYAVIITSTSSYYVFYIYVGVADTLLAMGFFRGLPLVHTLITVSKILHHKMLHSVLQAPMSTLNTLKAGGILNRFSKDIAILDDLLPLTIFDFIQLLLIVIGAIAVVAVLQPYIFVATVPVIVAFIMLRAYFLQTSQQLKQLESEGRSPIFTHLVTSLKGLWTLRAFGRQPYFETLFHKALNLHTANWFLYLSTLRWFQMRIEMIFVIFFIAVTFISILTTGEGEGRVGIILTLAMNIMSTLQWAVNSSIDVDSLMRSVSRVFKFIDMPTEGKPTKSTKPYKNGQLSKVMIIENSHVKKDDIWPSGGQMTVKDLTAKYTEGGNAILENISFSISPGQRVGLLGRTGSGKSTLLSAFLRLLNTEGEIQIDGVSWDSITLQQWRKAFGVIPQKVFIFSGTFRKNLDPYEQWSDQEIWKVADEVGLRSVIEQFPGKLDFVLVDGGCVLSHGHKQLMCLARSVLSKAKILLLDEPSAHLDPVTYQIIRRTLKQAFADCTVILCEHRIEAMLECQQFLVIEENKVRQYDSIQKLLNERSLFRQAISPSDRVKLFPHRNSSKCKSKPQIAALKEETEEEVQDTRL
How it was run: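 Primary ΔF508-homozygous CF bronchial epithelial cells on inserts were incubated 48 h at 36.5 °C with compound in IL-13-containing medium. VT and TEER were then recorded in current-clamp mode (pH 7.4 HEPES bath) with benzamil 10 μM, forskolin 10 μM, then CFTR inhibitor-172 20 μM. The IEQ AUC between forskolin and inhibitor was divided by vehicle AUC.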

SMILES | DSLS 3D (100 μM ΔT) (NBD1) | TECC (AUC, 10 μM) (CFTR)
CC1(C)CS(=O)(=O)Cc2c(c(F)cc3[nH]ccc23)Oc2ccc(F)c(c2)-c2ncc([nH]2)C(C)(c2cccc(CCC(=O)O)c2)CCCO1 (stereo not drawn) [Compound 48, 3-[3-(22,28-Difluoro-6,11,11-trimethyl-13,13-dioxo-10,24-dioxa-13λ6-thia-3,19,30-triazapentacyclo[23.3.1.12,5.015,23.016,20]triaconta-1(29),2,4,15,17,20,22,25,27-nonaen-6-yl)phenyl]propanoic Acid] | C (a value greater than 10 °C and less than or equal to 25 °C is marked “C”) | C (a value between 20 and 80 is marked “C”)
CC1(C)CCCC(C)(c2cccc(CCC(=O)O)c2)c2csc(n2)-c2cccc(c2)Oc2c(F)cc3[nH]ccc3c2CCS(=O)(=O)C1 (stereo not drawn) [Compound 50, 3-[3-(22-Fluoro-6,10,10-trimethyl-12,12-dioxo-24-oxa-3,12λ6-dithia-19,30-diazapentacyclo[23.3.1.12,5.015,23.016,20]triaconta-1(29),2(30),4,15,17,20,22,25,27-nonaen-6-yl)phenyl]propanoic Acid] | C (a value greater than 10 °C and less than or equal to 25 °C is marked “C”) | C (a value between 20 and 80 is marked “C”)
CC1(C)CCCC(C)(c2cccc(CCC(=O)O)c2)c2coc(n2)-c2cccc(c2)Oc2c(F)cc3[nH]ccc3c2CCS(=O)(=O)C1 (stereo not drawn) [Compound 51, 3-[3-(22-Fluoro-6,10,10-trimethyl-12,12-dioxo-3,24-dioxa-12λ6-thia-19,30-diazapentacyclo[23.3.1.12,5.015,23.016,20]triaconta-1(29),2(30),4,15,17,20,22,25,27-nonaen-6-yl)phenyl]propanoic Acid] | C (a value greater than 10 °C and less than or equal to 25 °C is marked “C”) | A (a TECC value less than 12 is marked “A”)
CC(CC(=O)O)c1cccc(C2CCCC(C)(C)CS(=O)(=O)CCc3c(c(F)cc4[nH]ccc34)Oc3cccc(c3)-c3ccnn32)c1 (stereo not drawn) [Compound 53, 3-[3-(23-Fluoro-11,11-dimethyl-13,13-dioxo-25-oxa-13lambda6-thia-5,6,20-triazapentacyclo[24.3.1.02,6.016,24.017,21]triaconta-1(30),2,4,16,18,21,23,26,28-nonaen-7-yl)phenyl]butanoic acid] | A (an ΔTagg value less than or equal to 5 °C is marked “A”) | A (a TECC value less than 12 is marked “A”)
CC1(C)CCCC(c2cccc(CCC(=O)O)c2)n2ccc(n2)-c2cc(ccc2F)Oc2c(F)cc3[nH]cnc3c2CCS(=O)(=O)C1 (stereo not drawn) [Compound 57, 3-[3-(22,28-Difluoro-10,10-dimethyl-12,12-dioxo-24-oxa-12λ6-thia-5,17,19,30-tetrazapentacyclo[23.3.1.12,5.015,23.016,20]triaconta-1(29),2(30),3,15,17,20,22,25,27-nonaen-6-yl)phenyl]propanoic Acid] | B (a value above 5 °C and less than or equal to 10 °C is marked “B”) | C (a value between 20 and 80 is marked “C”)
CC1(C)COCC(c2cccc(CCC(=O)O)c2)n2ccc(n2)-c2cc(ccc2F)Oc2c(F)cc3[nH]ccc3c2CCS(=O)(=O)C1 (stereo not drawn) [Compound 58, 3-[3-(22,28-Difluoro-10,10-dimethyl-12,12-dioxo-8,24-dioxa-12λ6-thia-5,19,30-triazapentacyclo[23.3.1.12,5.015,23.016,20]triaconta-1(29),2(30),3,15,17,20,22,25,27-nonaen-6-yl)phenyl]propanoic Acid] | C (a value greater than 10 °C and less than or equal to 25 °C is marked “C”) | B (a value between 12-20 is marked “B”)
CC1(C)COCCC(c2cccc(CCC(=O)O)c2)n2ccc(n2)-c2cc(ccc2F)Oc2c(F)cc3[nH]ccc3c2CS(=O)(=O)C1 (stereo not drawn) [Compound 59, 3-[3-(22,28-Difluoro-11,11-dimethyl-13,13-dioxo-9,24-dioxa-13λ6-thia-5,19,30-triazapentacyclo[23.3.1.12,5.015,23.016,20]triaconta-1(29),2(30),3,15,17,20,22,25,27-nonaen-6-yl)phenyl]propanoic Acid] | C (a value greater than 10 °C and less than or equal to 25 °C is marked “C”) | C (a value between 20 and 80 is marked “C”)
CC1(C)COCCC(c2cccc(CCC(=O)O)c2)n2nccc2-c2cc(ccc2F)Oc2c(F)cc3[nH]ccc3c2CS(=O)(=O)C1 (stereo not drawn) [Compound 60, 3-[3-(23,29-Difluoro-12,12-dimethyl-14,14-dioxo-10,25-dioxa-14λ6-thia-5,6,20-triazapentacyclo[24.3.1.02,6.016,24.017,21]triaconta-1(30),2,4,16,18,21,23,26,28-nonaen-7-yl)phenyl]propanoic Acid] | A (an ΔTagg value less than or equal to 5 °C is marked “A”) | A (a TECC value less than 12 is marked “A”)
Cn1cc2nc1-c1cc(ccc1F)Oc1c(F)cc3[nH]ccc3c1CCS(=O)(=O)CC(C)(C)CCCC2(C)c1cccc(CC(=O)O)c1 (stereo not drawn) [Compound 61, 2-[3-(22,28-Difluoro-3,6,10,10-tetramethyl-12,12-dioxo-24-oxa-12lambda6-thia-3,19,30-triazapentacyclo[23.3.1.12,5.015,23.016,20]triaconta-1(29),2(30),4,15,17,20,22,25,27-nonaen-6-yl)phenyl]acetic Acid] | C (a value greater than 10 °C and less than or equal to 25 °C is marked “C”) | B (a value between 12-20 is marked “B”)
CCn1nc2nc1-c1cc(ccc1F)Oc1c(F)cc3[nH]ccc3c1CCS(=O)(=O)CC(C)(C)CCCC2c1cccc(CCC(=O)O)c1 (stereo not drawn) [Compound 62, 3-[3-(3-Ethyl-22,28-difluoro-10,10-dimethyl-12,12-dioxo-24-oxa-12λ6-thia-3,4,19,30-tetrazapentacyclo[23.3.1.12,5.015,23.016,20]triaconta-1(29),2(30),4,15,17,20,22,25,27-nonaen-6-yl)phenyl]propanoic Acid] | C (a value greater than 10 °C and less than or equal to 25 °C is marked “C”) | C (a value between 20 and 80 is marked “C”)
Cn1nc2nc1-c1cc(ccc1F)Oc1c(F)cc3[nH]ccc3c1CCS(=O)(=O)CC(C)(C)CCCC2(C)c1cccc(CCCO)c1 (stereo not drawn) [Compound 64, 3-[3-(22,28-Difluoro-3,6,10,10-tetramethyl-12,12-dioxo-24-oxa-12λ6-thia-3,4,19,30-tetrazapentacyclo[23.3.1.12,5.015,23.016,20]triaconta-1(29),2(30),4,15,17,20,22,25,27-nonaen-6-yl)phenyl]propan-1-ol] | C (a value greater than 10 °C and less than or equal to 25 °C is marked “C”) | B (a value between 12-20 is marked “B”)
Cn1nc2nc1-c1cc(ccc1F)Oc1c(F)cc3[nH]ccc3c1CCS(=O)(=O)CC(C)(C)COCC2(C)c1cccc(CC(=O)O)c1 (stereo not drawn) [Compound 69, 2-[3-(22,28-Difluoro-3,6,10,10-tetramethyl-12,12-dioxo-8,24-dioxa-12λ6-thia-3,4,19,30-tetrazapentacyclo[23.3.1.12,5.015,23.016,20]triaconta-1(29),2(30),4,15,17,20,22,25,27-nonaen-6-yl)phenyl]acetic Acid] | C (a value greater than 10 °C and less than or equal to 25 °C is marked “C”) | A (a TECC value less than 12 is marked “A”)
CC1(C)CCCC(c2cccc(CCC(=O)O)c2)n2cc(Cl)c(n2)-c2cc(ccc2F)Oc2c(F)cc3[nH]ccc3c2CCS(=O)(=O)C1 (stereo not drawn) [Compound 70, 3-[3-(3-Chloro-22,28-difluoro-10,10-dimethyl-12,12-dioxo-24-oxa-12λ6-thia-5,19,30-triazapentacyclo[23.3.1.12,5.015,23.016,20]triaconta-1(29),2(30),3,15,17,20,22,25,27-nonaen-6-yl)phenyl]propanoic Acid] | C (a value greater than 10 °C and less than or equal to 25 °C is marked “C”) | A (a TECC value less than 12 is marked “A”)
CC1(C)CCCC(c2cccc(CCC(=O)O)c2)n2ncc(Cl)c2-c2cc(ccc2F)Oc2c(F)cc3[nH]ccc3c2CCS(=O)(=O)C1 (stereo not drawn) [Compound 71, 3-[3-(3-Chloro-23,29-difluoro-11,11-dimethyl-13,13-dioxo-25-oxa-13λ6-thia-5,6,20-triazapentacyclo[24.3.1.02,6.016,24.017,21]triaconta-1(30),2,4,16,18,21,23,26,28-nonaen-7-yl)phenyl]propanoic Acid] | C (a value greater than 10 °C and less than or equal to 25 °C is marked “C”) | A (a TECC value less than 12 is marked “A”)
CC(C)n1nc2nc1C(C)(c1cccc(CCC(=O)O)c1)CCCC(C)(C)CS(=O)(=O)CCc1c(c(F)cc3[nH]ccc13)Oc1ccc(F)c-2c1 (stereo not drawn) [Compound 74, 3-[3-(22,28-Difluoro-4-isopropyl-6,10,10-trimethyl-12,12-dioxo-24-oxa-12λ6-thia-3,4,19,30-tetrazapentacyclo-[23.3.1.12,5.015,23.016,20]triaconta-1(29),2,5(30),15,17,20,22,25,27-nonaen-6-yl)phenyl]propanoic acid] | C (a value greater than 10 °C and less than or equal to 25 °C is marked “C”) | A (a TECC value less than 12 is marked “A”)
